Measurements as given in ChEMBL document CHEMBL3046009, “Synthesis of piperineamino acid ester conjugates and study of their cytotoxic activities against human cancer cell lines” (Med Chem Res, 2012).
Where a name gives a salt, the structure may show the parent alone.

Legend:
Format in all cases: functional, cell-based
MCF7 = test: Cytotoxicity against Homo sapiens (human) MCF7 cells by SRB assay
HEp-2 = test: Cytotoxicity against Homo sapiens (human) Hep2 cells by SRB assay
DU-145 = test: Cytotoxicity against Homo sapiens (human) DU145 cells by SRB assay
COLO 205 = test: Cytotoxicity against Homo sapiens (human) COLO205 cells by SRB assay
PC-3 = test: Cytotoxicity against Homo sapiens (human) PC3 cells by SRB assay
IMR-32 = test: Cytotoxicity against Homo sapiens (human) IMR32 cells by SRB assay

Row | Compound | IC50 (MCF7) [µM] | IC50 (HEp-2) [µM] | IC50 (DU-145) [µM] | IC50 (COLO 205) [µM] | IC50 (PC-3) [µM] | IC50 (IMR-32) [µM]
1 | COC(=O)[C@@H](NC(=O)/C=C/C=C/c1ccc2c(c1)OCO2)C(C)C | 51 | > 50 | 44 | > 50 | 49 | > 50
2 | COC(=O)[C@H](NC(=O)/C=C/C=C/c1ccc2c(c1)OCO2)C(C)C | > 50 | > 50 | > 50 | 51 | > 50 | > 50
3 | COC(=O)[C@H](CC(C)C)NC(=O)/C=C/C=C/c1ccc2c(c1)OCO2 | 48 | 43 | > 50 | 55 | > 50 | > 50
4 | CC[C@H](C)[C@H](NC(=O)/C=C/C=C/c1ccc2c(c1)OCO2)C(=O)OC | 48 | > 50 | > 50 | > 50 | > 50 | > 50
5 | COC(=O)[C@H](CO)NC(=O)/C=C/C=C/c1ccc2c(c1)OCO2 | > 50 | > 50 | > 50 | 36 | > 50 | > 50
6 | COC(=O)C[C@H](NC(=O)/C=C/C=C/c1ccc2c(c1)OCO2)C(=O)OC | > 50 | > 50 | 46 | > 50 | > 50 | > 50
7 | COC(=O)[C@H](Cc1cnc[nH]1)NC(=O)/C=C/C=C/c1ccc2c(c1)OCO2 | > 50 | > 50 | 21 | > 50 | > 50 | > 50
8 | COC(=O)CNC(=O)/C=C/C=C/c1ccc2c(c1)OCO2 | 44 | > 50 | 49 | > 50 | 33 | 50
9 | COC(=O)[C@H](C)NC(=O)/C=C/C=C/c1ccc2c(c1)OCO2 | > 50 | > 50 | 51 | > 50 | > 50 | > 50
10 | COc1cccc2c1C(=O)c1c(O)c3c(c(O)c1C2=O)C[C@@](O)(C(=O)CO)C[C@@H]3O[C@H]1C[C@H](N)[C@H](O)[C@H](C)O1 [DOXORUBICIN HYDROCHLORIDE] | 0.8 | – | – | – | – | 0.02
11 | O=c1[nH]cc(F)c(=O)[nH]1 [FLUOROURACIL] | 2.9 | 2 | – | 2.9 | – | –
12 | CO[C@@]12[C@H](COC(N)=O)C3=C(C(=O)C(C)=C(N)C3=O)N1C[C@@H]1N[C@@H]12 [MITOMYCIN] | – | – | 1.8 | – | 1.4 | –
13 | O=C(/C=C/C=C/c1ccc2c(c1)OCO2)N1CCCCC1 [PIPERINE] | 99 | 70 | > 50 | 46 | > 50 | 89
